The source made the active and inactive calls. The rule behind the calls is not given here.
What was measured:
Assay type in all cases: functional, organism-based
Settings in all cases: dose 50.0 µg
[1] = system: Bacillus subtilis; experiment: Antibacterial activity against Bacillus subtilis assessed as inhibition of bacterial growth at 50 ug incubated for 24 hrs by paper disc method
[2] = system: Staphylococcus aureus; experiment: Antibacterial activity against Staphylococcus aureus assessed as inhibition of bacterial growth at 50 ug incubated for 24 hrs by paper disc method
[3] = system: Escherichia coli; experiment: Antibacterial activity against Escherichia coli assessed as inhibition of bacterial growth at 50 ug incubated for 24 hrs by paper disc method

| Compound | Activity [1] | Activity [2] | Activity [3] |
| --- | --- | --- | --- |
| OCC(O)CO | inactive | inactive | inactive |
| CC/C=C\C[C@@H]1C(=O)C=C[C@@H]1CCCCCCCC(=O)OCC(O)CO (some centres not stated) | Active | Active | inactive |
| CC/C=C\C[C@@H]1C(=O)C=C[C@@H]1CCCCCCCC(=O)O | Active | Active | inactive |
| CC/C=C\C[C@H]1C(=O)CC[C@@H]1CC(=O)O | inactive | inactive | inactive |

— ChEMBL document CHEMBL5634177, “Isolation and Structure Determination of cis-OPDA-α-Monoglyceride from Arabidopsis thaliana” (J Nat Prod, 2024)
